# Reference: US20150216870A1, “Combination of PI3K Inhibitor and C-Met Inhibitor” (Novartis AG, priority 2012, published 2015)
# “Also recorded” adds a separate entry of the source.
# Legend:
# [1] = system: NCI-H1993 human non-small cell lung carcinoma xenograft; assay: NCI-H1993 xenograft tumor growth inhibition and tumor growth delay; type: in vivo, athymic nude mice; conditions: c-Met inhibitor 17.7 mg/kg p.o. b.i.d. to end
# Excerpt: In this experiment, the NCI-H1993 human non-small cell lung carcinoma xenograft model is used to assess the anti-tumor efficacy of the PI3K inhibitor COMPOUND D and c-Met inhibitor 2-fluoro-N-methyl-4-[7-quinolin-6-yl-methyl)-imidazo[1,2-b][1,2,4]triazin-2yl]benzamide as single agents or in combination. NCI-H1993 tumor cells obtained from the American Type Culture Collection (ATCC) are derived from a lymph node metastasis of a patient having a stage 3A lung adenocarcinoma and a history of smoking.
# Female athymic nude mice (Crl:NU (Ncr)-Foxn1^nu, Charles River) are 8 weeks old, and have a body weight (BW) range of 16.1-26.2 g, on D1 of the study. The animals are fed ad libitum water (reverse osmosis, 1 ppm CI) and NIH 31 Modified and Irradiated Lab Diet® consisting of 18.0% crude protein, 5.0% crude fat, and 5.0% crude fiber. The mice are housed on irradiated Enrich-O'cobs™ Laboratory Animal Bedding in static microisolators on a 12-hour light cycle at 20-22° C. (68-72° F.) and 40-60% humidity.
# The NCI-H1993 tumor line is obtained from the American Type Culture Collection and maintained at DRS_NC in RPMI-1640 medium containing 100 unites/penicillin G sodium, 100 µg/mL streptomycin sulfate, 25 µg/mL gentamicin, 10% fetal bovine serum, and 2 mM glutamine. The tumor cells are cultured in tissue culture flasks in a humidified incubator at 37° C. in an atmosphere of 5% CO2 and 95% air.
# The tumor cells used for implementation are harvested during log phase growth and resuspended in cold PBS containing 50% Matrigel™ (BD Biosciences). Each mouse is injected subcutaneously in the right flank with 1×10^7 cells (0.2 mL cell suspension). Tumors are calipered in two dimensions to monitor growth as their mean volume approached the desired 200-250 mm^3 range. Tumor size, in mm^3, was calculated from: Tumor Volume=(width^2×length)/2, where width and length (in mm) are measurements of the tumor. Tumor weight can be estimated with the assumption that 1 mg is equivalent to 1 mm^3 of tumor volume. Fourteen days after tumor cell implantation, on D1 of the study, mice with individual tumor volumes of 172-256 mm^3 are sorted into groups of ten mice, with group mean tumor volumes of 206-215 mm^3.
# The c-Met inhibitor 2-fluoro-N-methyl-4-[7-quinolin-6-yl-methyl)-imidazo[1,2-b][1,2,4]triazin-2yl]benzamide (HCl salt, 84.98% free base) is stored at 4° C. and is added to a volume of deionized water equal to 1/2 of the final volume and sonicated until dissolved to obtain a uniform 2× suspension. An equal volume of 0.5% methylcellulose: 0.1% Tween® 80 is added to provide a 1.77 mg/mL solution with final vehicle concentrations of 0.25% methylcellulose and 0.05% Tween® 80 in deionized water (Vehicle 1). Fresh solutions are prepared once daily for the […]. dosing and stored at room temperature until the a.m. dosing.
# COMPOUND D is suspended at 3.0 mg/mL in 0.5% methylcellulose in deionized water. The vehicle is added in portions equal to 1/3 of the final volume. The suspension is vortexed after each addition, and then finally probe sonicated on ice to prepare a homogeneous white suspension. A fresh suspension is prepared weekly, stored at 4° C., and re-suspended prior to dosing.
# The c-MET inhibitor and the vehicle is each administered via oral gavage (p.o.) twice daily for the duration of the study (b.i.d. to end). COMPOUND D is administered via oral gavage (p.o.) once daily for the duration of the study (qd to end). In combination therapies, COMPOUND D is dosed within 30 minutes after the c-Met inhibitor. In all groups, the dosing volume of 10 mL/kg (0.2 mL/20 g mouse) is scaled to the weight of each animal as determined on the day of dosing, except on weekends when the previous BW is carried forward.
# The groups of nude mice (n=10/group) are treated as follows. Group 1 receive Vehicle 1 and Vehicle 2 and serve as controls for the study. […] Group 3 receives 30 mg/kg COMPOUND D monotherapy once daily for the duration of the study (qd to end).
# U-87 MG = assay: CellTiter-Glo cell viability dose matrix in U-87 MG glioblastoma cells; type: cell-based, human; conditions: U87 MG (PTEN mutant, HGF expressing)
# Experimental: (§1) The PI3K inhibitor COMPOUND C and the c-MET receptor tyrosine kinase inhibitor 2-fluoro-N-methyl-4-[7-quinolin-6-yl-methyl)-imidazo[1,2-b][1,2,4]triazin-2yl]benzamide are evaluated in combination in glioblastoma tumor models. COMPOUND C (10 mM) and 2-fluoro-N-methyl-4-[7-quinolin-6-yl-methyl)-imidazo[1,2-b][1,2,4]triazin-2yl]benzamide (10 mM) are dissolved in DMSO, and are stored in aliquots at −20° C.
# (§2) Human Glioblastoma cell lines, U-87 MG (PTEN mutant and HGF expressing line), H4 (PTEN mutant and HGF expressing line), A172 (PTEN mutant line with low HGF expression level) and LN-229 (PTEN wildtype and HGF low) are purchased from American Type Cell Collection and are maintained in a humidified incubator at 37° C. in 5% CO2 in recommended media. All four cell lines express detected MET at the mRNA level.
# (§3) The cells are passaged twice a week and the medium is changed every 2 to 3 days. […]
# (§4) Cell viability is determined by measuring cellular ATP content using the CellTiter-Glo® (CTG) luminescent cell viability assay (Promega). […] An equal volume of the CTG reagents is added to each well at the end of the compound treatment and luminescence is recorded on an Envision plate reader (Perkin Elmer). Reduced and enhanced luminescent signal values (responses) are calculated relative to untreated (control) cells. […]
# LN-229 = assay: CellTiter-Glo cell viability dose matrix in LN-229 glioblastoma cells; type: cell-based, human; conditions: LN229 (PTEN wildtype, HGF low)
# Experimental: as §1, §2, §3, §4
smiles,measurement,setting,value
CNC(=O)c1ccc(-c2cnc3ncc(Cc4ccc5ncccc5c4)n3n2)cc1F [c-Met inhibitor],% TGD,[1],97%
same,D71 survivors,[1],four
same,T-C,[1],24.2 days
same,T/C or T/T0,[1]; D20,15%
same,Median TTE,[1]; endpoint 600 mm3,49.2 days
same,overall survival (in words),[1]; logrank vs control,significantly extends survival; also recorded: significant survival extension
same,D20 tumor growth inhibition (in words),[1]; vs control Group 1,does not achieve significant inhibition relative to control; also recorded: non-significant D20 tumor growth inhibition
same,anti-proliferative activity (single agent),U-87 MG,only moderate activities
same,anti-proliferative activity (single agent),LN-229,completely inactive
